The values below come from US9034866B2 (Genentech, Inc., priority 2012, dated 2015).

Where “and” joins values, the source holds several entries; their conditions need not be identical. Equal entries are not always repeated. Some results are limits rather than exact numbers.

The target in the first experiment is nuclear factor-kappa B (NF-kB)-inducing kinase (NIK) (Homo sapiens (Human), UniProt Q99558). Nature of the experiment: NIK Enzyme Inhibition Assay (Transcreener ADP fluorescence polarization). To be noted: purified NIK 0.2-1 nM, 10 uM ATP, Morrison's quadratic equation; read-out: NIK ADP-FP (Ki uM). The experiment is classed as biochemical. As for the experimental part: NIK Enzyme Inhibition Assay: The ability of the nuclear factor-kappa B (NF-kB)-inducing kinase (NIK) to catalyze the hydrolysis of adenosine-5′-triphosphate (ATP) was monitored using the Transcreener ADP (adenosine-5′-diphosphate) assay (BellBrook Labs). Purified NIK (0.2-1 nM) derived from a baculovirus-infected insect cell expression system was incubated with test compounds for 1-3.5 hours in 50 mM 2-[4-(2-hydroxyethyl)piperazin-1-yl]ethanesulfonic acid buffer (pH 7.2) containing 10 mM MgCl2, 2 mM dithiothreitol, 10 uM ATP, 0.01% Triton X-100, 0.1% gamma-globulins from bovine blood, 1% dimethylsulfoxide (DMSO), 12 ug/mL ADP antibody and 4 nM ADP-AlexaFluor® 633 tracer. Reactions were quenched by the addition of 20 mM 2,2′,2″,2′″-(ethane-1,2-diyldinitrilo)tetraacetic acid and 0.01% Brij 35. The tracer bound to the antibody was displaced by the ADP generated during the NIK reaction, which causes a decrease in fluorescence polarization that was measured by laser excitation at 633 nm with a Fluorescence Correlation Spectroscopy Plus reader (Evotec AG).
nuclear factor-kappa B (NF-kB)-inducing kinase (NIK), sequence (Q99558 whole entry): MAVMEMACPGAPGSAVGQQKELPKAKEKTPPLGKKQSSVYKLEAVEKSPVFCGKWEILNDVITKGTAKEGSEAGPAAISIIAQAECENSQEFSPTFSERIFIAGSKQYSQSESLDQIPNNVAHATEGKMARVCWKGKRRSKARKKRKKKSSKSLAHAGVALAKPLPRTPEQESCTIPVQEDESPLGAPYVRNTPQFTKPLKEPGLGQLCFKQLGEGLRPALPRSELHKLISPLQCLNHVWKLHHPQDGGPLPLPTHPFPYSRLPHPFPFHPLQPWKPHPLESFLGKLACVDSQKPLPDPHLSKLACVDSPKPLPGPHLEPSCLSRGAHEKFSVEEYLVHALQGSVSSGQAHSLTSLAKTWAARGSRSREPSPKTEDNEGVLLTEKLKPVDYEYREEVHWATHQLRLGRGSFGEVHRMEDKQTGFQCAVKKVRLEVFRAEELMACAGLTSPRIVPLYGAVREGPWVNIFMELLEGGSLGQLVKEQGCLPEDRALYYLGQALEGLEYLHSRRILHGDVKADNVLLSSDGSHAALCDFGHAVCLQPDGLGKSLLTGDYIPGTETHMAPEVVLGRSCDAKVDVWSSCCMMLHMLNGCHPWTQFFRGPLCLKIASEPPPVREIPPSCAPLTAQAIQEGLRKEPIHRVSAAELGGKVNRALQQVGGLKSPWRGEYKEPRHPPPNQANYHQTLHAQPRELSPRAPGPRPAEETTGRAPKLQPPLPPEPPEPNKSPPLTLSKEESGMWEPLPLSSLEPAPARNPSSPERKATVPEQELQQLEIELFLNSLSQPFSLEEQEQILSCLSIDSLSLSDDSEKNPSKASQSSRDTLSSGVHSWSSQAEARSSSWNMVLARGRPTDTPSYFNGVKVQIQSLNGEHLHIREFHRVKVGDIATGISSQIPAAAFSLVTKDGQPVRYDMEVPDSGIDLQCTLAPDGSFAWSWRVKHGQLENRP
A word on the Ki: it is a measure of affinity in units of concentration, obtained from inhibition or displacement. Regarding `Cn1cnc(C(C)(O)C#Cc2cc3c(cc2F)OCCn2cc(C(N)=O)nc2-3)c1` (centres unmarked), the inhibition constant Ki was more than 5 µM.

Regarding `Cc1nc(-c2c(C(N)=O)nc3n2CCOc2cc(F)c(C#CC(C)(C)O)cc2-3)n(CC(F)(F)F)n1`, the inhibitory constant (Ki) turned out to be 0.502 µM. Still for that read-out and setting: under `CC(O)(C#Cc1cc2c(cc1F)OCCn1cc(C(N)=O)nc1-2)c1ncc(F)cn1` (centres unmarked) stands 4 µM; under `Cn1cnc(C(C)(O)C#Cc2cc3c(cc2F)OCCc2sc(C(N)=O)nc2-3)c1` (centres unmarked), more than 5 µM; under `CNC(=O)c1c(C(N)=O)nc2n1C1CC(C1)c1cc(F)c(C#CC(C)(O)CO)cc1-2` (centres unmarked), 0.01 µM. As to `CN1CCCC(O)(C#Cc2cc3c(cc2F)OCCc2sc(C(N)=O)nc2-3)C1=O` (centres unmarked), the Ki came to 0.002 µM. Same read-out and setting: under `CC(O)C(C)(O)C#Cc1cc2c(cc1F)OCCn1cc(C(N)=O)nc1-2` (centres unmarked) stands 4.9 µM; under `Cc1nc([C@](C)(O)C#Cc2ccc3c(c2)-c2nc(C(N)=O)cn2C2CC3C2)no1`, 0.003 µM. As to `CC(O)(C#Cc1cc2c(cc1F)C1CC(C1)n1cc(C(N)=O)nc1-2)CO` (centres unmarked), the inhibitory constant (Ki) amounted to 0.014 µM. Regarding `CC(C)(O)C#Cc1cc2c(cc1F)C1CC(C1)n1c-2nc(C(N)=O)c1CN1CCOCC1`, the inhibition constant Ki amounted to 0.021 µM. Same read-out and setting: for `Cc1nc(C(C)(O)C#Cc2cc3c(cc2F)OCCn2cc(C(N)=O)nc2-3)n[nH]1` (centres unmarked) the value was 3.9 µM; for `CC(O)(C#Cc1cc2c(cc1F)OCCn1cc(C(N)=O)nc1-2)c1ccncn1` (centres unmarked), more than 5 µM. As to `CN1CCCC(O)(C#Cc2ccc3c(c2)-c2nc(C(N)=O)sc2CCO3)C1=O` (centres unmarked), the Ki stood at 0.0029 µM. On the same count and under the same terms, for `Cn1cc(C(O)c2c(C(N)=O)nc3n2CCOc2cc(F)c(C#CC(C)(C)O)cc2-3)cn1` (centres unmarked) the value was 0.082 µM; for `Cn1cc([C@@H](O)c2c(C(N)=O)nc3n2CCOc2cc(F)c(C#CC(C)(C)O)cc2-3)cn1`, 0.033 µM.

Consider `Cn1cc([C@H](O)c2c(C(N)=O)nc3n2CCOc2cc(F)c(C#CC(C)(C)O)cc2-3)cn1`, for which the inhibitory constant (Ki) is 0.033 µM.

With `CC(O)(C#Cc1cc2c(cc1F)OCCn1c-2nc(C(N)=O)c1C1CC1)CO` (centres unmarked), the inhibition constant (Ki) came out at 0.098 µM. Still for that read-out and setting: for `CC(O)(C#Cc1ccc2c(c1)-c1nc(C(N)=O)cn1C1CC2C1)c1ccccn1` (centres unmarked) the value was 0.0071 µM. For `COCC(C)(O)C#Cc1ccc2c(c1)-c1nc(C(N)=O)cn1C1CC2C1` (centres unmarked), the inhibitory constant (Ki) is 0.0097 µM. The same measure, in the same setting: for `CC(O)(C#Cc1cc2c(cc1F)OCCn1c-2nc(C(N)=O)c1C1CC1)c1ccccn1` (centres unmarked) the value was 0.037 µM. Same read-out and setting: for `CC(O)(C#Cc1cc2c(cc1F)C1CC(C1)n1c-2nc(C(N)=O)c1-c1nc(C2CC2)n[nH]1)CO` (centres unmarked) the value was 0.0065 µM. `CC(O)(C#Cc1ccc2c(c1)-c1nc(C(N)=O)cn1C1CC2C1)c1nc[nH]n1` (centres unmarked): the Ki came to 0.018 µM. Still for that read-out and setting: for `CNC(=O)c1c(C(N)=O)nc2n1CCOc1ccc(C#CC3(O)CCCCC3)cc1-2` the value was 0.0057 µM; for `Cn1nccc1Cc1c(C(N)=O)nc2n1C1CC(C1)c1cc(F)c(C#CC(C)(C)O)cc1-2`, 0.0024 µM; for `CN1CCC(O)(C#Cc2ccc3c(c2)-c2nc(C(N)=O)cn2CCO3)C1=O` (centres unmarked), 0.004 µM. The same measure, in the same setting: for `Cc1nnc(C(C)(O)C#Cc2ccc3c(c2)-c2nc(C(N)=O)cn2CCO3)o1` (centres unmarked) the value was 0.028 µM; for `Cn1cncc1C(O)c1c(C(N)=O)nc2n1C1CC(C1)c1cc(F)c(C#CC(C)(C)O)cc1-2` (centres unmarked) [listing 1 of 2 here], 0.011 µM. For `Cn1cncc1C(O)c1c(C(N)=O)nc2n1C1CC(C1)c1cc(F)c(C#CC3(O)CCCC3)cc1-2` (centres unmarked), the inhibition constant (Ki) is 0.014 µM. Still for that read-out and setting: under `Cn1cncc1C(O)c1c(C(N)=O)nc2n1C1CC(C1)c1cc(F)c(C#CC(C)(C)O)cc1-2` (centres unmarked) [listing 2 of 2 here] stands 0.031 µM; under `CNC(=O)c1c(C(N)=O)nc2n1CCOc1ccc(C#C[C@](C)(O)c3ccccn3)cc1-2`, more than 5 µM; under `CC(O)(C#Cc1cc2c(cc1F)OCCn1cc(C(N)=O)nc1-2)c1c[nH]cn1` (centres unmarked), 0.001 µM. On the same count and under the same terms, under `CC(=O)N1CCN(Cc2c(C(N)=O)nc3n2CCOc2ccc(C#CC(C)(C)O)cc2-3)CC1` stands 0.21 µM; under `CN1CCN(Cc2c(C(N)=O)nc3n2CCOc2ccc(C#CC(C)(C)O)cc2-3)CC1`, 0.95 µM; under `CN1CC[C@](O)(C#Cc2ccc3c(c2)-c2nc(C(N)=O)cn2C2CC3C2)C1=O`, more than 1.2 µM.

Regarding `Cc1nc([C@](C)(O)C#Cc2ccc3c(c2)-c2nc(C(N)=O)c(C(O)c4ccnn4C)n2C2CC3C2)no1` (some centres unmarked), the Ki came to 0.0029 µM.

In the case of `CC(C)(O)C#Cc1ccc2c(c1)-c1nc(C(N)=O)c(Cn3ncc4ccccc43)n1CCO2`, the Ki amounted to 0.14 µM. On the same count and under the same terms, under `Cn1nccc1Cc1c(C(N)=O)nc2n1C1CC(C1)c1ccc(C#C[C@@](C)(O)c3ncccn3)cc1-2` stands 0.0013 µM. Still for that read-out and setting: under `CC(C)(O)C#Cc1ccc2c(c1)-c1nc(C(N)=O)c(Cn3ncc4cccnc43)n1CCO2` stands 0.2 µM; under `CC(C)(O)C#Cc1cc2c(cc1F)C1CC(C1)c1c-2nc(C(N)=O)n1Cc1ccccc1Cl`, 0.0036 µM; under `Cn1ccnc1C(C)(O)C#Cc1cc2c(cc1F)OCCn1cc(C(N)=O)nc1-2` (centres unmarked), 0.239 µM. On the same count and under the same terms, under `CN1CC[C@@](O)(C#Cc2ccc3c(c2)-c2nc(C(N)=O)c(C(=O)NC4CC4)n2C2CC3C2)C1=O` stands 0.016 µM; under `Cc1cc([C@](C)(O)C#Cc2ccc3c(c2)-n2nc(C(N)=O)cc2CCO3)no1`, 0.0066 µM. As for `C[C@@](O)(C#Cc1ccc2c(c1)-n1nc(C(N)=O)cc1C(F)(F)CO2)c1cccnn1`, the inhibition constant (Ki) was 1.6 µM. The same measure, in the same setting: under `CC(C)(O)C#Cc1ccc2c(c1)-c1nc(C(N)=O)c(CNC3COC3)n1CCO2` stands 0.00054 µM; under `CC(C)NCc1c(C(N)=O)nc2n1CCOc1ccc(C#CC(C)(C)O)cc1-2`, 0.0042 µM. Still for that read-out and setting: under `CC(C)(O)C#Cc1ccc2c(c1)-c1nc(C(N)=O)c(CN3CCC(C#N)C3)n1CCO2` (centres unmarked) stands 0.0019 µM; under `CC(C)(O)C#Cc1ccc2c(c1)-c1nc(C(N)=O)c(CN3CC[C@@H](C#N)C3)n1CCO2`, 1.8 µM and 1.1 µM; under `CC(C)(O)C#Cc1cc2c(cc1F)OCCn1c-2nc(C(N)=O)c1C(=O)NC1CCOC1` (centres unmarked), 0.037 µM. The same measure, in the same setting: for `COCC(C)(O)C#Cc1cc2c(cc1F)OCCn1cc(C(N)=O)nc1-2` (centres unmarked) the value was 0.068 µM.

As for `CNC(=O)C(C)(O)C#Cc1cc2c(cc1F)OCCn1cc(C(N)=O)nc1-2` (centres unmarked), the inhibition constant Ki stood at 1.4 µM. On the same count and under the same terms, under `CNC(=O)c1c(C(N)=O)nc2n1CCOc1cc(F)c(C#CC(C)(O)CO)cc1-2` (racemic) stands 0.002 µM. The same measure, in the same setting: under `CNC(=O)c1c(C(N)=O)nc2n1CCOc1ccc(C#CC(C)(O)CO)cc1-2` (racemic) stands 0.003 µM. With `Cn1nc(-c2ccncc2)nc1-c1c(C(N)=O)nc2n1CCOc1cc(F)c(C#CC(C)(C)O)cc1-2` (racemic), the Ki amounted to 0.635 µM. Same read-out and setting: under `CC(O)(C#Cc1cc2c(cc1F)OCCn1cc(C(N)=O)nc1-2)c1ncc[nH]1` (racemic) stands 0.083 µM; under `NC(=O)c1cn2c(n1)-c1cc(C#CC3(O)CCc4cccnc43)ccc1OCC2` (racemic), 0.0051 µM. On the same count and under the same terms, under `CC(C)(C#Cc1cc2c(cc1F)OCCn1cc(C(N)=O)nc1-2)CO` (racemic) stands more than 5 µM. Take `CN(C)C1COc2cc(F)c(C#CC(C)(C)O)cc2-c2nc(C(N)=O)sc21` (racemic): the inhibition constant (Ki) is more than 5 µM.

On to `Cc1cc(C(C)(O)C#Cc2cc3c(cc2Cl)OCCn2cc(C(N)=O)nc2-3)no1` (racemic), for which the Ki is more than 5 µM. Same read-out and setting: under `COCC(C)(O)C#Cc1cc2c(cc1F)C1CC(C1)n1c-2nc(C(N)=O)c1C1CC1` (racemic) stands 0.014 µM. Still for that read-out and setting: for `Cc1cc([C@](C)(O)C#Cc2ccc3c(c2)-c2nc(C(N)=O)c(C(=O)N(C)C)n2C2CC3C2)no1` (racemic) the value was 0.03 µM; for `CN(C)Cc1c(C(N)=O)nc2n1C1CC(C1)c1cc(F)c(C#CC(C)(C)O)cc1-2` (racemic), 0.6 µM. Same read-out and setting: under `CN1CCN(Cc2c(C(N)=O)nc3n2C2CC(C2)c2cc(F)c(C#CC(C)(C)O)cc2-3)CC1` (racemic) stands 0.12 µM; under `CC(C)(O)C#Cc1cc2c(cc1F)C1CC(C1)c1[nH]c(C(N)=O)nc1-2` (racemic), 0.00068 µM; under `Cn1nccc1C(O)c1c(C(N)=O)nc2n1C1CC(C1)c1cc(F)c(C#CC(C)(C)O)cc1-2` (racemic), 0.0072 µM.

Regarding `CC(=O)N1CCN(Cc2c(C(N)=O)nc3n2C2CC(C2)c2cc(F)c(C#CC(C)(C)O)cc2-3)CC1` (racemic), the Ki came to 0.026 µM.

In the case of `Cc1nc(C(C)(O)C#Cc2cc3c(cc2F)OCCn2cc(C(N)=O)nc2-3)c[nH]1` (racemic), the Ki came to 2.5 µM. As to `COCCNCc1c(C(N)=O)nc2n1C1CC(C1)c1cc(F)c(C#CC(C)(C)O)cc1-2` (racemic), the Ki is 0.056 µM. On to `CC(C)(O)C#Cc1cc2c(cc1F)C1CC(C1)n1c-2nc(C(N)=O)c1Cc1ccccc1Cl` (racemic), for which the Ki was 0.0021 µM. Turning to `CN1CC[C@](O)(C#Cc2ccc3c(c2)-c2nc(C(N)=O)c(C4CN(C(=O)C5CC5)C4)n2C2CC3C2)C1=O` (racemic), the inhibition constant Ki was more than 1.2 µM.

For `CC(C)(O)C#Cc1cc2c(cc1F)C1CC(C1)c1sc(C(N)=O)cc1-2` (racemic), the Ki was found to be 0.11 µM.

As for `Cc1cc([C@](C)(O)C#Cc2ccc3c(n2)-n2cc(C(N)=O)nc2CCO3)no1` (racemic), the Ki was found to be 0.21 µM.

Take `CC(O)(C#Cc1cc2c(cc1F)OCCn1cc(C(N)=O)nc1-2)c1cc(CC#N)on1` (racemic): the Ki came out at 0.003 µM.

Staying with this experiment, now noted: read-out: NIK ADP-FP (Ki uM).
In the case of `CNC(=O)c1c(C(N)=O)nc2n1C1CC(C1)c1cc(F)c(C#C[C@@](C)(O)c3noc(C)n3)cc1-2`, the Ki was 0.051 µM.

In the case of `CN1CC[C@@](O)(C#Cc2ccc3c(c2)-c2nc(C(N)=O)c(COc4ccccc4Cl)n2CCO3)C1=O`, the inhibitory constant (Ki) was 0.004 µM.
